Laboratory results reported in patent US20250049809A1, “INHIBITORS OF MUTANT IDH1 AND IDH2” (Board of Regents, The University of Texas System, priority 2023, published 2025).

Legend:
Format in all cases: biochemical
mIDH1R132H/S280F = mIDH1R132H/S280F (Homo sapiens (Human), UniProt O75874, R132H/S280F); experiment: mIDH1 R132H/S280F enzymatic activity assay (NADPH fluorescence); conditions: enzyme assay, 1 hour preincubation; read-out: IDH1R132H/S280F IC50
Procedure: (§1) The enzymatic activity of mIDH1R132H/S280F was assessed by measuring the fluorescence of the NADPH. The assay was performed in 384 well, white ProxiPlates (PerkinElmer, 6008280) in assay buffer containing 50 mM Hepes (Life Technologies, 15630080), 50 mM KCl (Teknova, P0327), 10 mM MgCl2 (Sigma-Aldrich, M1028), 1 mM DTT (Sigma-Aldrich, 43815), 0.02% BSA (Sigma-Aldrich, A3059) at pH 7.5. The final reaction volume was 10 μL. Stock solutions of the test compounds were prepared in 100% DMSO (Sigma, D2650) and serially diluted 1:3 using 100% DMSO. 50 nL of compound were then transferred to the assay plate using the Beckman Coulter ECHO 650 Acoustic Liquid Handler for a final DMSO concentration of 0.5%. 5 μL of a mIDH1R132H/S280F and NADPH (Santa Cruz, SC202725C) mixture were added to the assay plate for a final concentration of 2 nM and 10 PM, respectively. 5 μL of NADPH alone were added to negative control wells followed by a 1 hour preincubation at room temperature. 5 μL of alphaketoglutarate (Sigma-Aldrich, K1128) were added to the assay plate for a final concentration of 120 μM. Fluorescence of NADPH (excitation: 350 nm, emission 450 nm) was immediately measured kinetically for approximately 90 minutes using the BioTek Synergy Neo plate reader.

mIDH2R140Q = mIDH2R140Q (Homo sapiens (Human), UniProt P48735, R140Q); experiment: mIDH2 R140Q enzymatic activity assay (NADPH fluorescence); conditions: enzyme assay, 1 hour preincubation; read-out: IDH2R140Q IC50
mIDH2R140Q, sequence (P48735 40-452 R140Q): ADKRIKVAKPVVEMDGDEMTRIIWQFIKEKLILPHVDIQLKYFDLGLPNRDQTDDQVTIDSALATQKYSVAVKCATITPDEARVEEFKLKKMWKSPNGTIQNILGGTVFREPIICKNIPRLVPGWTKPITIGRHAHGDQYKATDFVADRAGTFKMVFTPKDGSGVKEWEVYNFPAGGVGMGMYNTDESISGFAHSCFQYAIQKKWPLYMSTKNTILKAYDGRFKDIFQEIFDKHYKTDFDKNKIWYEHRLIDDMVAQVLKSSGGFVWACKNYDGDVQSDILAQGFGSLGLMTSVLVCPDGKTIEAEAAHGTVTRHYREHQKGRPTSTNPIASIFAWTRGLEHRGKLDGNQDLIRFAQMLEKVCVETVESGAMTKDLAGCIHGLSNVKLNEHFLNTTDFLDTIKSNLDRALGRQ
Procedure: as §1, with “of mIDH2R140Q” for “of mIDH1R132H/S280F”, “a mIDH2R140Q” for “a mIDH1R132H/S280F”, “of 3” for “of 2”, “10 μM,” for “10 PM,”, “of 300” for “of 120”, “approximately 150” for “approximately 90”

mIDH1R132H = mIDH1R132H (Homo sapiens (Human), UniProt O75874, R132H); experiment: mIDH1 R132H enzymatic activity assay (NADPH fluorescence); conditions: enzyme assay; read-out: IDH1R132H IC50
mIDH1R132H, sequence (O75874 whole entry R132H): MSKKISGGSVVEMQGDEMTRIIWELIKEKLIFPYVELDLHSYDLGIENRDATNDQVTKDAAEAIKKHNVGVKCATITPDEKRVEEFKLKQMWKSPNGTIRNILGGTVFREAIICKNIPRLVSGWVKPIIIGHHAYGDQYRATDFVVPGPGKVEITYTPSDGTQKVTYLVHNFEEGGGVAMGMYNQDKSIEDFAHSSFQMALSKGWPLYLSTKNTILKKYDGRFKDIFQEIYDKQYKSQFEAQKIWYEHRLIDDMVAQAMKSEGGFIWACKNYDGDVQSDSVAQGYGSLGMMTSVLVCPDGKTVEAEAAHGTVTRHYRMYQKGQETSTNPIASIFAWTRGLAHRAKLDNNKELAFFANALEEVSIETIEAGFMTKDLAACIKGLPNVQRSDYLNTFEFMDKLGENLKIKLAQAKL
Procedure: The enzymatic activity of mIDH1R132H was assessed by measuring the fluorescence of the NADPH. The assay was performed in 384 well, white ProxiPlates (PerkinElmer, 6008280) in assay buffer containing 50 mM Hepes (Life Technologies, 15630080), 50 mM KCl (Teknova, P0327), 10 mM MgCl2 (Sigma-Aldrich, M1028), 1 mM DTT (Sigma-Aldrich, 43815), 0.02% BSA (Sigma-Aldrich, A3059) at pH 7.5. The final reaction volume was 10 μL. Stock solutions of the test compounds were prepared in 100% DMSO (Sigma, D2650) and serially diluted 1:3 using 100% DMSO. 50 nL of compound were then transferred to the assay plate using the Beckman Coulter ECHO 650 Acoustic Liquid Handler for a final DMSO concentration of 0.5%. […] a mIDH1R132H and NADPH (Santa Cruz, SC202725C) mixture were added to the assay plate for a final concentration of 10 nM and 20 μM, respectively. 5 μL of NADPH alone were added to negative control wells. 5 μL of alphaketoglutarate (Sigma-Aldrich, K1128) were added to the assay plate for a final concentration of 200 μM. Fluorescence of NADPH (excitation: 350 nm, emission 450 nm) was immediately measured kinetically for approximately 60 minutes using the BioTek Synergy Neo plate reader.

WT IDH2 = WT IDH2 (Homo sapiens (Human), UniProt P48735); experiment: WT IDH2 enzymatic activity assay (NADPH fluorescence); conditions: enzyme assay
WT IDH2, sequence (P48735 40-452): as the sequence (P48735 40-452 R140Q) above, with Q101R counted along it
Procedure: The enzymatic activity of WT IDH2 was assessed by measuring the fluorescence of the NADPH generated in the enzymatic reaction. The assay was performed in 384 well, white ProxiPlates (PerkinElmer, 6008280) in assay buffer containing 50 mM Hepes (Life Technologies, 15630080), 50 mM KCl (Teknova, P0327), 10 mM MgCl2 (Sigma-Aldrich, M1028), 1 mM DTT (Sigma-Aldrich, 43815), 0.02% BSA (Sigma-Aldrich, A3059) at pH 7.5. The final reaction volume was 10 μL. Stock solutions of the test compounds were prepared in 100% DMSO (Sigma, D2650) and serially diluted 1:3 using 100% DMSO. 50 nL of compound were then transferred to the assay plate using the Beckman Coulter ECHO 650 Acoustic Liquid Handler for a final DMSO concentration of 0.5%. 5 μL of WT IDH2 were added to the assay plate for a final concentration of 0.5 nM. 5 μL of assay buffer alone were added to negative control wells. 5 μL of an isocitrate (Sigma-Aldrich, 58790) and NADP (Sigma-Aldrich, N5755) mixture were added to the assay plate for a final concentration of 5 μM and 15 μM, respectively. Fluorescence of NADPH (excitation: 350 nm, emission 450 nm) was immediately measured kinetically for approximately 15 minutes using the BioTek Synergy Neo plate reader.

mIDH1R132H/S280F, sequence (O75874 whole entry R132H/S280F): as the sequence (O75874 whole entry R132H) above, with S280F counted along it

**Q.** Which results are given for `C=CC(=O)N1CCN(C2CCCC/C=C/CN3C(=O)OCc4cnc(nc43)N[C@@H](C)c3ccc2cc3)CC1` (stereo partly drawn) [Example 3, (3S,E)-5-(4-acryloylpiperazin-1-yl)-3-methyl-1^1,1^4-dihydro-1^2H-2-aza-1(7,1)-pyrimido[4,5-d][1,3]oxazina-4(1,4)-benzenacyclododecaphan-10-en-1^2-one]?
**A.** IC50 (mIDH1R132H/S280F): 260 nM; IC50 (mIDH2R140Q): 1440 nM; IC50 (mIDH1R132H): 3.3 nM; IC50 (WT IDH2): 16200 nM

**Q.** Which results are given for `C=CC(=O)N1CCN(C2CCCCCCCN3C(=O)OCc4cnc(nc43)N[C@@H](C)c3ccc2cc3)CC1` (stereo partly drawn) [Example 4, (3S)-5-(4-acryloylpiperazin-1-yl)-3-methyl-1^1,1^4-dihydro-1^2H-2-aza-1(7,1)-pyrimido[4,5-d][1,3]oxazina-4(1,4)-benzenacyclododecaphan-1^2-one]?
**A.** IC50 (mIDH1R132H/S280F): 295 nM; IC50 (mIDH2R140Q): 1680 nM; IC50 (mIDH1R132H): 4 nM; IC50 (WT IDH2): 41200 nM
